Reference: ChEMBL document CHEMBL3870313, “Synthesis and structure-activity relationship study of tacrine-based pyrano[2,3-c]pyrazoles targeting AChE/BuChE and 15-LOX” (Eur J Med Chem, 2016)

Key:
Acetylcholinesterase [1] = biological target: T1, Acetylcholinesterase (Electrophorus electricus, UniProt O42275)
Description: Inhibition of electric eel AChE using acetylthiocholine iodide as substrate incubated for 5 mins followed by substrate addition measured for 1 min by Ellman's method

Cholinesterase = Cholinesterase (Homo sapiens, UniProt P06276)
Description: Inhibition of human recombinant BChE using butyrylthiocholine iodide as substrate incubated for 5 mins followed by substrate addition measured for 1 min by Ellman's method

in vitro [2] = conditions: human, HepG2 cells
Description: Cytotoxicity against human HepG2 cells assessed as cell viability at 5 uM after 24 hrs by MTT assay

[3] = biological target: Acetylcholinesterase (Electrophorus electricus) (UniProt O42275); experiment: Potency index, ratio of tacrine IC50 to compound IC50 for electric eel AChE
Acetylcholinesterase (Electrophorus electricus), sequence (O42275 24-633 limits assumed): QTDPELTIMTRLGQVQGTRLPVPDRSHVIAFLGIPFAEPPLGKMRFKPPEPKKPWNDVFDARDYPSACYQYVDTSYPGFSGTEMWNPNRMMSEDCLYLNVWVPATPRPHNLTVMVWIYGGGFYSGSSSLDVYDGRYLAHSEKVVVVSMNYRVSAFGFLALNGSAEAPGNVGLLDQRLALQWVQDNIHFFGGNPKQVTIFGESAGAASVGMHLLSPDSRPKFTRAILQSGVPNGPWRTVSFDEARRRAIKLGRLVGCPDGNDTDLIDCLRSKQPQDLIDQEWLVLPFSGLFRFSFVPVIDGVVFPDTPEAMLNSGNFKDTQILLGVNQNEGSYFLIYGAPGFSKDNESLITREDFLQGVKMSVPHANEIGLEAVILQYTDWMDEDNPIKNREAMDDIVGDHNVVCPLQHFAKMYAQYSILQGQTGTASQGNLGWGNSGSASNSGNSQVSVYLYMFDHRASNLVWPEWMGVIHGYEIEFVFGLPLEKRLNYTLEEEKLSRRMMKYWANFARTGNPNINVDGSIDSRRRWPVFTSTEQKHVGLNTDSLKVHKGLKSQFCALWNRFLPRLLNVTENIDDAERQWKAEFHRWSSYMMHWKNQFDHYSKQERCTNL

Acetylcholinesterase [4] = biological target: T1, Acetylcholinesterase; experiment: Mixed type inhibition of electric eel AChE using acetylthiocholine iodide as substrate incubated for 5 mins followed by substrate addition measured for 1 min by Lineweaver-Burk plot analysis
in vitro [5] = conditions: human, HepG2 cells; remark: listed apart in the source
Description: Cytotoxicity against human HepG2 cells assessed as cell viability at 50 uM after 24 hrs by MTT assay

in vitro [6] = conditions: human, HepG2 cells; remark: listed apart in the source
Description: Cytotoxicity against human HepG2 cells assessed as cell viability at 25 uM after 24 hrs by MTT assay

in vitro [7] = conditions: human, HepG2 cells; remark: listed apart in the source
Description: Cytotoxicity against human HepG2 cells assessed as cell viability at 1 uM after 24 hrs by MTT assay

in vitro [8] = conditions: human, HepG2 cells; remark: listed apart in the source
Description: Cytotoxicity against human HepG2 cells assessed as cell viability at 10 uM after 24 hrs by MTT assay

in vitro [9] = conditions: human, HepG2 cells; remark: listed apart in the source
Description: Cytotoxicity against human HepG2 cells assessed as cell viability at 300 uM after 24 hrs by MTT assay

in vitro [10] = conditions: human, HepG2 cells; remark: listed apart in the source
Description: Cytotoxicity against human HepG2 cells assessed as cell viability at 100 uM after 24 hrs by MTT assay

Cholinesterase, sequence (P06276 whole entry): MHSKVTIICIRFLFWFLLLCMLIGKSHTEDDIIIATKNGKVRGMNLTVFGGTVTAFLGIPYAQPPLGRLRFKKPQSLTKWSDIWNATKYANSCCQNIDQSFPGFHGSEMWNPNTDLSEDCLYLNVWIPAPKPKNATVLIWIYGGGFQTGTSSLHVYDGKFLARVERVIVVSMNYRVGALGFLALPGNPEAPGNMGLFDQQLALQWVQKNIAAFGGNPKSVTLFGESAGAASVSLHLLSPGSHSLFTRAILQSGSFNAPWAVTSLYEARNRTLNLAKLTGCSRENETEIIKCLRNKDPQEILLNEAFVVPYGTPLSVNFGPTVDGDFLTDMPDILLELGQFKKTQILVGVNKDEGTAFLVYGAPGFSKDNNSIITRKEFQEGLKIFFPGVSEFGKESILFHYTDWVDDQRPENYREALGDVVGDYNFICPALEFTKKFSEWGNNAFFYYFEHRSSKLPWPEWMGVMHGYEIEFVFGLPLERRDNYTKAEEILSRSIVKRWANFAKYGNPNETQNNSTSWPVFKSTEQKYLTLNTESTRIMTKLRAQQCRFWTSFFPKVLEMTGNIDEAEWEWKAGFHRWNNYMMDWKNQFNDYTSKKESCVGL
T1 sequence (O42275 whole entry): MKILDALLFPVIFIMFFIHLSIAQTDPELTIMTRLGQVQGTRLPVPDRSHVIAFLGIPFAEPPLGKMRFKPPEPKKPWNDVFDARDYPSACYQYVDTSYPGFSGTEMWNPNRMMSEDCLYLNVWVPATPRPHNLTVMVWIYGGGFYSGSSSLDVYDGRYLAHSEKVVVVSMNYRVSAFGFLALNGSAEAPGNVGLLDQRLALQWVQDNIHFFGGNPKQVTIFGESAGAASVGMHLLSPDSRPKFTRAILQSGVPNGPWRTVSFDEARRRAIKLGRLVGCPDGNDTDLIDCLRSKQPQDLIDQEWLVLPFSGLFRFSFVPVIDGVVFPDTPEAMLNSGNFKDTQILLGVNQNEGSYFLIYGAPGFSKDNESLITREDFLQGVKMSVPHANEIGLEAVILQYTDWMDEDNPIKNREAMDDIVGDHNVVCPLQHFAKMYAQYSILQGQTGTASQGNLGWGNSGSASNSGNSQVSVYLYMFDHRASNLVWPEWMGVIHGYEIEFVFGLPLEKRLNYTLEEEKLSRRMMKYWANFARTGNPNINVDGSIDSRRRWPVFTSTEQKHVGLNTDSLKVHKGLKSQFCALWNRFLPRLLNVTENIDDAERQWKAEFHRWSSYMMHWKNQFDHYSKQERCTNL

SMILES | IC50 (Acetylcholinesterase [1]) [nM] | IC50 (Cholinesterase) [nM] | further results
Cc1ccc(C2c3c(-c4ccccc4)n[nH]c3Oc3cc4c(c(N)c32)CCCC4)cc1 (stereo unspecified) | 98 | 11 | –
Nc1c2c(cc3c1C(c1ccc(Cl)cc1)c1c(-c4ccccc4)n[nH]c1O3)CCCC2 (stereo unspecified) | 260 | 21 | –
CCCc1n[nH]c2c1C(c1cc(OC)c(OC)c(OC)c1)c1c(nc3c(c1N)CCCC3)O2 (stereo unspecified) | 900 | 42 | –
Nc1c2c(nc3c1C(c1ccccc1)c1c(-c4ccccc4)n[nH]c1O3)CCCCC2 (stereo unspecified) | 54 | 9 | –
Nc1c2c(nc3c1C(c1ccc(Cl)cc1)c1c(-c4ccccc4)n[nH]c1O3)CCCCC2 (stereo unspecified) | 1920 | 77 | –
CC(C)C1c2c(-c3ccccc3)n[nH]c2Oc2nc3c(c(N)c21)CCCC3 (stereo unspecified) | 15000 | 570 | –
CCCc1n[nH]c2c1C(c1cccc([N+](=O)[O-])c1)c1c(nc3c(c1N)CCCC3)O2 (stereo unspecified) | 423 | 12 | –
CCCc1n[nH]c2c1C(c1ccc(Cl)cc1)c1c(nc3c(c1N)CCCCC3)O2 (stereo unspecified) | 1060 | 75 | –
CCCc1n[nH]c2c1C(c1ccc(SC)cc1)c1c(nc3c(c1N)CCCC3)O2 (stereo unspecified) | 201 | 8 | –
Nc1c2c(nc3c1C(c1ccccc1)c1c(-c4ccccc4)nn(-c4ccccc4)c1O3)CCCC2 (stereo unspecified) | > 200000 | > 200000 | –
CCCc1n[nH]c2c1C(c1ccc(OC)cc1)c1c(nc3c(c1N)CCCC3)O2 (stereo unspecified) | 52 | 6 | –
CCCc1n[nH]c2c1C(c1ccc(C#N)cc1)c1c(nc3c(c1N)CCCC3)O2 (stereo unspecified) | 954 | 37 | –
Nc1c2c(nc3c1C(c1ccc(Cl)cc1)c1c(-c4ccccc4)n[nH]c1O3)CCSC2 (stereo unspecified) | 450 | 30 | –
CCCc1n[nH]c2c1C(c1ccc(Cl)cc1)c1c(nc3c(c1N)CCCC3)O2 (stereo unspecified) | 200 | 10 | –
CCCc1n[nH]c2c1C(c1cccc(Br)c1)c1c(nc3c(c1N)CCCC3)O2 (stereo unspecified) | 472 | 15 | –
CCCc1n[nH]c2c1C(c1ccc(C)cc1)c1c(nc3c(c1N)CSCC3)O2 (stereo unspecified) | 1030 | 73 | –
CCCc1n[nH]c2c1C(c1ccc(N(C)C)cc1)c1c(nc3c(c1N)CCCC3)O2 (stereo unspecified) | 347 | 24 | –
CCCc1n[nH]c2c1C(c1ccc(C)cc1)c1c(nc3c(c1N)CCCC3)O2 (stereo unspecified) | 120 | 13 | –
Nc1c2c(nc3c1C(c1ccccc1)c1c(-c4ccco4)n[nH]c1O3)CCCC2 (stereo unspecified) | 100 | 15 | –
CCCc1n[nH]c2c1C(c1ccccc1OC)c1c(nc3c(c1N)CCCC3)O2 (stereo unspecified) | 471 | 18 | –
CCCc1n[nH]c2c1C(c1ccc(OC)c(OC)c1)c1c(nc3c(c1N)CCCC3)O2 (stereo unspecified) | 1470 | 365 | –
CCCc1n[nH]c2c1C(c1ccc(Cl)cc1)c1c(nc3c(c1N)CSCC3)O2 (stereo unspecified) | 300 | 15 | –
Nc1c2c(cc3c1C(c1ccc(F)cc1)c1c(-c4ccccc4)n[nH]c1O3)CCCC2 (stereo unspecified) | 34 | 7 | viability at 24 h, 5 µM (in vitro [2]): 100%; Ratio IC50 [3]: 6; Ki (Acetylcholinesterase [4]): 490 nM; viability at 24 h, 50 µM (in vitro [5]): 98.4%; viability at 24 h, 25 µM (in vitro [6]): 99.7%; viability at 24 h, 1 µM (in vitro [7]): 101%; viability at 24 h, 10 µM (in vitro [8]): 100%; viability at 24 h, 300 µM (in vitro [9]): 73.4%; viability at 24 h, 100 µM (in vitro [10]): 89.9%
CCCc1n[nH]c2c1C(c1ccccc1)c1c(nc3c(c1N)CCCCC3)O2 (stereo unspecified) | 650 | 43 | –
Nc1c2c(cc3c1C(c1ccccc1)c1c(-c4ccccc4)n[nH]c1O3)CCCC2 (stereo unspecified) | 140 | 8 | –
Nc1c2c(nc3c1C(c1ccccc1)c1c(-c4ccco4)nn(-c4ccccc4)c1O3)CCCC2 (stereo unspecified) | 72 | 5 | viability at 24 h, 5 µM (in vitro [2]): 95.8%; viability at 24 h, 50 µM (in vitro [5]): 81.4%; viability at 24 h, 25 µM (in vitro [6]): 85%; viability at 24 h, 1 µM (in vitro [7]): 99.6%; viability at 24 h, 10 µM (in vitro [8]): 90.3%; viability at 24 h, 300 µM (in vitro [9]): 67.4%; viability at 24 h, 100 µM (in vitro [10]): 75.7%
COc1ccc(C2c3c(-c4ccccc4)n[nH]c3Oc3cc4c(c(N)c32)CCCC4)cc1 (stereo unspecified) | 81 | 7 | viability at 24 h, 5 µM (in vitro [2]): 99.4%; viability at 24 h, 50 µM (in vitro [5]): 98.2%; viability at 24 h, 25 µM (in vitro [6]): 99.7%; viability at 24 h, 1 µM (in vitro [7]): 99.1%; viability at 24 h, 10 µM (in vitro [8]): 99.7%; viability at 24 h, 300 µM (in vitro [9]): 71.3%; viability at 24 h, 100 µM (in vitro [10]): 85.6%
COc1cc(C2c3c(-c4ccccc4)n[nH]c3Oc3nc4c(c(N)c32)CCCC4)cc(OC)c1OC (stereo unspecified) | 1030 | 65 | –
CCCc1n[nH]c2c1C(c1ccc([N+](=O)[O-])cc1)c1c(nc3c(c1N)CCCC3)O2 (stereo unspecified) | 744 | 29 | –
